Laboratory results reported in patent publication US10519177B2, “Heterocyclic compounds and uses thereof” (Plexxikon Inc., priority 2013, dated 2019).
Like-named read-outs stand apart in the source and are kept apart here.

Columns and labels:
MV-4-11 cells = assay: Oncology cell growth assay MV-4-11 (CellTiter Glo); format: cell-based
Procedure, shortened: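 Growth read by CellTiter Glo luminescence after 72 h compound treatment of MLL-AF4-bearing MV-4-11 cells (3000/well). Titration: 8 points, 1:3 steps, maximum 10 μM, 0.2% DMSO final. Data normalized to DMSO wells, four-parameter fit gives pIC50.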

BRD4-BD12 (1-477) = BRD4-BD12 (1-477) (Homo sapiens (Human), UniProt O60885); assay: Alphascreen binding assay BRD4-BD12; conditions: BRD4(1 2) H4; read-out: Biochemical activity (IC50 μM) BRD4(1 2) H4
Procedure, shortened: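 In this competition format, compounds displace a biotinylated tetra-acetyl H4 peptide from E. coli-expressed human BRD4 bromodomain constructs captured on nickel chelate beads. The reaction runs at pH 7.5 with 2 mM DTT and detergent for 1 h at room temperature before a 30 min bead step.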

bromodomain = assay: at least one of the bromodomain cell assays of Example 57; format: cell-based; conditions: read-out: IC50 in at least one of the bromodomain cell assays
BRD4-BD1 (44-164) = BRD4-BD1 (44-164) (Homo sapiens (Human), UniProt O60885); assay: Alphascreen binding assay BRD4-BD1; conditions: BRD4(1) H4; read-out: Biochemical activity (IC50 μM) BRD4(1) H4
Procedure, shortened: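 AlphaScreen signal (nickel acceptor, streptavidin donor beads, 7.5 µg/ml each, read 30 min after addition) reports displacement of biotin-H4 K5/K8/K12/K16-acetyl peptide from His-BRD4 BD1 (44-164) or tandem BD12 (1-477).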

[1] = Homo sapiens, MV4-11, 72 h; read-out: Cell activity (IC50 μM) MV-4-11 3d-Growth
[2] = at least one of the bromodomain cell assays described in Example 57

Row | SMILES | IC50 (MV-4-11 cells; Homo sapiens, MV4-11, 72 h, read-out: Cell activity (IC50 μM) MV-4-11 3d-Growth) [µM] | IC50 (BRD4-BD12 (1-477)) [µM] | IC50 (bromodomain) [µM] | IC50 (BRD4-BD1 (44-164)) [µM] | IC50 (MV-4-11 cells; [1]) [µM] | IC50 (bromodomain; [2]) [µM]
1 | Cc1noc(C)c1-c1cnc2c(C#C[Si](C)(C)C)cn(C(C)c3ccccc3)c2c1 (stereo not drawn) [P-0288, 2-[6-(3,5-dimethylisoxazol-4-yl)-1-(1-phenylethyl)pyrrolo[3,2-b]pyridin-3-yl]ethynyl-trimethyl-silane] | < 1 | < 1 | < 10 | < 1 |  | 
2 | Cc1noc(C)c1-c1cnc2c(-c3ccnc(C4CC4)c3)cn(C(C)c3ccccc3)c2c1 (stereo not drawn) [P-0268, 4-[3-(2-cyclopropyl-4-pyridyl)-1-(1-phenylethyl)pyrrolo[3,2-b]pyridin-6-yl]-3,5-dimethyl-isoxazole] |  | < 1 |  | < 1 | < 1 | < 10
3 | Cc1ccc(-c2cn(C(C)c3ccccc3)c3cc(-c4c(C)noc4C)cnc23)cn1 (stereo not drawn) [P-0272, 3,5-dimethyl-4-[3-(6-methyl-3-pyridyl)-1-(1-phenylethyl)pyrrolo[3,2-b]pyridin-6-yl]isoxazole] |  | < 1 |  | < 1 | < 1 | < 10
4 | Cc1n[nH]c(C)c1-c1cn(C(C)c2ccccc2)c2cc(-c3c(C)noc3C)cnc12 (stereo not drawn) [P-0287, 4-[3-(3,5-dimethyl-1H-pyrazol-4-yl)-1-(1-phenylethyl)pyrrolo[3,2-b]pyridin-6-yl]-3,5-dimethyl-isoxazole] |  | < 1 |  | < 1 | < 1 | < 10
5 | COc1ncc(-c2cn(C(C)c3ccccc3)c3cc(-c4c(C)noc4C)cnc23)cn1 (stereo not drawn) [P-0275, 4-[3-(2-methoxypyrimidin-5-yl)-1-(1-phenylethyl)pyrrolo[3,2-b]pyridin-6-yl]-3,5-dimethyl-isoxazole] |  | < 1 |  | < 1 | < 1 | < 10
6 | Cc1ccc(-c2cnc3ccn(CC4CCC(F)(F)CC4)c3c2)cn1 [P-0313, 1-[(4,4-difluorocyclohexyl)methyl]-6-(6-methyl-3-pyridyl)pyrrolo[3,2-b]pyridine] |  | < 1 |  | 10 to 200 | 10 to 200 | < 10
7 | Cc1noc(C)c1-c1cnc2c(-c3cnn(CC(F)(F)F)c3)cn(CC3(F)CCC(F)(F)CC3)c2c1 [P-0321, 3,5-dimethyl-4-(1-[(1,4,4-trifluorocyclohexyl)methyl]-3-[1-(2,2,2-trifluoroethyl)pyrazol-4-yl]pyrrolo[3,2-b]pyridin-6-yl]isoxazole] |  | 1 to 10 |  | < 1 | < 1 | < 10
8 | Cc1noc(C)c1-c1cnc2c(I)cn(C(CC#N)C3CC3)c2c1 (stereo not drawn) [P-0309, 3-cyclopropyl-3-[6-(3,5-dimethylisoxazol-4-yl)-3-iodo-pyrrolo[3,2-b]pyridin-1-yl]propanenitrile] |  | < 1 |  | < 1 | < 1 | < 10
9 | Cc1noc(C)c1-c1cnc2c(I)cn(Cc3ccccn3)c2c1 [P-0333, 4-[3-iodo-1-(2-pyridylmethyl)pyrrolo[3,2-b]pyridin-6-yl]-3,5-dimethyl-isoxazole] |  | < 1 |  | < 1 | < 1 | < 10
10 | Cc1noc(C)c1-c1cnc2c(-c3cnn(C(F)F)c3)cn(CC3CC(F)(F)C3)c2c1 [P-0304] |  | < 1 |  | < 1 | < 1 | < 10
11 | Cc1noc(C)c1-c1cnc2c(-c3cnc(C4CC4)nc3)cn(C(C)c3ccccc3)c2c1 (stereo not drawn) [P-0278, 4-[3-(2-cyclopropylpyrimidin-5-yl)-1-(1-phenylethyl)pyrrolo[3,2-b]pyridin-6-yl]-3,5-dimethyl-isoxazole] |  | < 1 |  | < 1 | < 1 | < 10
12 | Cc1noc(C)c1-c1cnc2c(-c3cnn(C4COC4)c3)cn(CC3CCC(F)(F)CC3)c2c1 [P-0295, 4-[1-[(4,4-difluorocyclohexyl)methyl]-3-[1-(oxetan-3-yl)pyrazol-4-yl]pyrrolo[3,2-b]pyridin-6-yl]-3,5-dimethyl-isoxazole] |  | < 1 |  | < 1 | < 1 | < 10
13 | Cc1noc(C)c1-c1cnc2c(-c3ccc(O)nc3)cn(C(C)c3ccccc3)c2c1 (stereo not drawn) [P-0270, 5-[6-(3,5-dimethylisoxazol-4-yl)-1-(1-phenylethyl)pyrrolo[3,2-b]pyridin-3-yl]pyridin-2-ol] |  | < 1 |  | < 1 | < 1 | < 10
14 | Cc1noc(C)c1-c1cnc2ccn(CC3CCC(F)(F)CC3)c2c1 [P-0282, 4-[1-[(4,4-difluorocyclohexyl)methyl]pyrrolo[3,2-b]pyridin-6-yl]-3,5-dimethyl-isoxazole] |  | 1 to 10 |  | < 1 | < 1 | < 10
15 | Cc1c(-c2cnc3ccn(CC4CCC(F)(F)CC4)c3c2)cnn1C [P-0293, l-[(4,4-difluorocyclohexyl)methyl]-6-(1,5-dimethylpyrazol-4-yl)pyrrolo[3,2-b]pyridine] |  | 10 to 200 |  | 10 to 200 | 10 to 200 | < 10
16 | Cc1noc(C)c1-c1cnc2c(-c3cnn(C)c3)cn(Cc3ncccn3)c2c1 [P-0325, 3,5-dimethyl-4-[3-(1-methylpyrazol-4-yl)-1-(pyrimidin-2-ylmethyl)pyrrolo[3,2-b]pyridin-6-yl]isoxazole] |  | < 1 |  | < 1 | < 1 | < 10
17 | Cc1noc(C)c1-c1cnc2c(I)cn(CC3CC(F)(F)C3)c2c1 [P-0303, 4-[1-[(3,3-difluorocyclobutyl)methyl]-3-iodo-pyrrolo[3,2-b]pyridin-6-yl]-3,5-dimethyl-isoxazole] |  | < 1 |  | < 1 | < 1 | < 10
18 | Cc1nnn(C)c1-c1cnc2ccn(CC3CCC(F)(F)CC3)c2c1 [P-0291, l-[(4,4-difluorocyclohexyl)methyl]-6-(3,5-dimethyltriazol-4-yl)pyrrolo[3,2-b]pyridine] |  | 10 to 200 |  | < 1 | 1 to 10 | < 10
19 | Cc1noc(C)c1-c1cnc2c(C#CCO)cn(C(C)c3ccccc3)c2c1 (stereo not drawn) [P-0302, 3-[6-(3,5-dimethylisoxazol-4-yl)-1-(1-phenylethyl)pyrrolo[3,2-b]pyridin-3-yl]prop-2-yn-1-ol] |  | < 1 |  | < 1 | < 1 | < 10
20 | Cc1noc(C)c1-c1cnc2c(-c3cnn(C)c3)cn(Cc3ccccc3)c2c1 [P-0327, 4-[1-benzyl-3-(1-methylpyrazol-4-yl)pyrrolo[3,2-b]pyridin-6-yl]-3,5-dimethyl-isoxazole] |  | < 1 |  | < 1 | < 1 | < 10
21 | Cc1onc(N)c1-c1cnc2ccn(CC3CCC(F)(F)CC3)c2c1 [P-0329, 4-[1-[(4,4-difluorocyclohexyl)methyl]pyrrolo[3,2-b]pyridin-6-yl]-5-methyl-isoxazol-3-amine] |  | < 1 |  | < 1 | 1 to 10 | < 10
22 | Oc1ccc(-c2cnc3ccn(CC4CCC(F)(F)CC4)c3c2)cn1 [P-0284, 5-[1-[(4,4-difluorocyclohexyl)methyl]pyrrolo[3,2-b]pyridin-6-yl]pyridin-2-ol] |  | 1 to 10 |  | < 1 | 1 to 10 | < 10
23 | Cc1nc(C)c(-c2cnc3ccn(CC4CCC(F)(F)CC4)c3c2)s1 [P-0294, 5-[1-[(4,4-difluorocyclohexyl)methyl]pyrrolo[3,2-b]pyridin-6-yl]-2,4-dimethyl-thiazole] |  | < 1 |  | 10 to 200 | 1 to 10 | < 10
24 | Cc1noc(C)c1-c1cnc2c(-c3cnn(CC(F)(F)F)c3)c[nH]c2c1 [P-0265, 3,5-dimethyl-4-[3-[1-(2,2,2-trifluoroethyl)pyrazol-4-yl]-1H-pyrrolo[3,2-b]pyridin-6-yl]isoxazole] |  | < 1 |  | < 1 | < 1 | < 10
